These results are taken from patent US4618604A, “Composition and method for improving feed utilization or tissue production in animals” (Monsanto Company, priority 1984, dated 1986).

Structures are written as SMILES. Where a name gives a salt, the structure may show the parent alone.

A short description of assay [1]: Chick growth feeding trial (weight gain and feed conversion, treated vs untreated chicks). In kind it is in vivo.
Assay [2] in a line: Pig growth feeding trials I-III (weight gain and feed efficiency, treated vs untreated pigs). Format: in vivo. The conditions noted are these: Example 2, growing period about 18-90 kg. From the text:
The following examples are included to illustrate the improved feed utilization and/or tissue producing effect of the substituted phenylphosphinic acid derivatives of the present invention. It should be understood that examples are included to illustrate the practice of the present invention and are not intended to limit the scope of the invention. It should be further understood that the dosage levels recited in the following examples are only illustrative and are not meant to limit the scope of the invention. Unless otherwise noted, all percentages are by weight. Comparisons are between the numerical average for treated animals and the numerical average for untreated animals.
A swine diet for growing pigs prepared from the following types and amounts of ingredients:
Three trials were conducted wherein pigs were administered 2-methoxyphenylmethylphosphinic acid at dosage levels of 2.0, 10.0, 20.0 (TRIAL I); 0.5, 2.0, 8.0 (TRIAL II); and 0.5, 2.0, 8.0 (TRIAL III) milligrams per kilogram of finished feed throughout a growing period of about 18-90 kg.

Setting [3] is: Examples 4 and 6, 1 mg and 10 mg per kg feed.
[4] abbreviates: Example 10, 1, 20, 60 or 100 mg per kg feed.
The mark [5] stands for this setting: trials I and II, 2.0 mg/kg finished feed.

In the case of `CP(=O)(O)c1ccccc1N` [2-aminophenylmethylphosphinic acid hydrochloride salt], in assay [1] (Example 9, 2.0 mg per kg feed), the “average daily weight gain” value is listed as “higher average daily weight gain than untreated chicks”.
`CP(=O)(O)c1ccccc1Cl` [2-chlorophenylmethylphosphinic acid]: the daily weight gain result in assay [1] (Example 5, 0.5 mg per kg feed) was “higher daily weight gain than untreated chicks”.
With `CP(=O)(O)c1ccccc1[N+](=O)[O-]` [2-nitrophenylmethylphosphinic acid], the “average daily weight gain” value in assay [1] (setting [3]) is given as “higher average daily weight gain than untreated chicks”.
For `COc1ccccc1P(C)(=O)O` [2-methoxyphenylmethylphosphinic acid], in assay [1] (setting [4]), the average daily gain result is reported as “higher average daily gain” and the “conversion of feed to weight gain” value is “converted feed to weight gain more efficiently than untreated chicks”. In addition, in assay [2] (10.0 and 20.0 mg/kg finished feed, vs untreated), the weight gain entry is on record as “gained weight faster than untreated pigs”. Also, in assay [2] (setting [5]), the daily weight gain result is given as “faster daily weight gain” and the feed efficiency entry is given as “improved feed efficiency”.
`Cc1ccccc1P(C)(=O)O` [2-methylphenylmethylphosphinic acid]: the “conversion of feed to weight gain” value in assay [1] (Example 3, 0.5 to 4.0 mg/kg feed, 45-48 days) is listed as “converted feed to weight gain more efficiently than untreated chicks”.
In the case of `CP(=O)(O)c1ccccc1C(=O)O` [2-carboxylphenylmethylphosphinic acid, 2-carboxyphenylmethylphosphinic acid], the “average daily weight gain” value in assay [1] (Example 7, 11 mg per kg feed) was “higher average daily weight gain than untreated chicks”.
Consider `CCP(=O)(O)c1ccccc1OC` [2-methoxyphenylethylphosphinic acid], for which the “average daily weight gain” value in assay [1] (Example 8, 10 mg per kg feed) was “higher average daily weight gain than untreated chicks”.
Consider `CP(=O)(O)c1ccccc1O` [Ammonium 2-hydroxyphenylmethylphosphinate], for which the “average daily weight gain” value in assay [1] (setting [3]) was “higher average daily weight gain than untreated chicks”.
